Like-named read-outs stand apart in the source and are kept apart here.

The source of these data is patent publication US20220289698A1, “INHIBITORS OF HUMAN ATGL” (Karl-Franzens-Universität Graz, priority 2019, published 2022).

The target of one test is T1, human ATGL (Homo sapiens, UniProt Q96AD5).
T1 construct: made in house; host or cells: Expi cells (lysate, not purified)
T1 sequence (Q96AD5 1-504): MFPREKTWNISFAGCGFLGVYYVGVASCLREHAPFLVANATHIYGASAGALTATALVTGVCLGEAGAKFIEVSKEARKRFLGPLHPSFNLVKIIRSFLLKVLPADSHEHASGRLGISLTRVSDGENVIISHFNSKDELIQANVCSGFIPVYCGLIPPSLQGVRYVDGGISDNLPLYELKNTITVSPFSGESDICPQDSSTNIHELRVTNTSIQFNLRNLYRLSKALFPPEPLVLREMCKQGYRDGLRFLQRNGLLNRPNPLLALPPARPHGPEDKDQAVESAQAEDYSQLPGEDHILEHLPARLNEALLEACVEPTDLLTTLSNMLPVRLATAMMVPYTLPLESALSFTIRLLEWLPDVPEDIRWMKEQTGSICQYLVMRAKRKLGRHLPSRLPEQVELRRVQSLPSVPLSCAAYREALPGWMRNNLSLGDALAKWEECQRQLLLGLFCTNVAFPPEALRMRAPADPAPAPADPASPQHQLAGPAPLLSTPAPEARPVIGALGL
As to the kind of experiment: TG hydrolase activity, Expi cell lysates expressing human ATGL + CGI-58, radiolabelled triolein. Type of test: biochemical. A digest of the protocol: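 Lysates of Expi cells expressing ATGL, supplemented with purified CGI-58 and inhibitor in DMSO, incubated 1 h at 37 °C with emulsified radiolabelled triolein (330 μM) in potassium phosphate pH 7.0 with 5% FA-free BSA. Released FA counted by liquid scintillation after phase extraction; IC50 versus DMSO control, duplicates.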

In another test the target is T2, hPNPLA6 (Homo sapiens, UniProt Q8IY17).
T2 construct: made in house; host or cells: Expi cells (lysate)
T2 sequence (Q8IY17 1-1375): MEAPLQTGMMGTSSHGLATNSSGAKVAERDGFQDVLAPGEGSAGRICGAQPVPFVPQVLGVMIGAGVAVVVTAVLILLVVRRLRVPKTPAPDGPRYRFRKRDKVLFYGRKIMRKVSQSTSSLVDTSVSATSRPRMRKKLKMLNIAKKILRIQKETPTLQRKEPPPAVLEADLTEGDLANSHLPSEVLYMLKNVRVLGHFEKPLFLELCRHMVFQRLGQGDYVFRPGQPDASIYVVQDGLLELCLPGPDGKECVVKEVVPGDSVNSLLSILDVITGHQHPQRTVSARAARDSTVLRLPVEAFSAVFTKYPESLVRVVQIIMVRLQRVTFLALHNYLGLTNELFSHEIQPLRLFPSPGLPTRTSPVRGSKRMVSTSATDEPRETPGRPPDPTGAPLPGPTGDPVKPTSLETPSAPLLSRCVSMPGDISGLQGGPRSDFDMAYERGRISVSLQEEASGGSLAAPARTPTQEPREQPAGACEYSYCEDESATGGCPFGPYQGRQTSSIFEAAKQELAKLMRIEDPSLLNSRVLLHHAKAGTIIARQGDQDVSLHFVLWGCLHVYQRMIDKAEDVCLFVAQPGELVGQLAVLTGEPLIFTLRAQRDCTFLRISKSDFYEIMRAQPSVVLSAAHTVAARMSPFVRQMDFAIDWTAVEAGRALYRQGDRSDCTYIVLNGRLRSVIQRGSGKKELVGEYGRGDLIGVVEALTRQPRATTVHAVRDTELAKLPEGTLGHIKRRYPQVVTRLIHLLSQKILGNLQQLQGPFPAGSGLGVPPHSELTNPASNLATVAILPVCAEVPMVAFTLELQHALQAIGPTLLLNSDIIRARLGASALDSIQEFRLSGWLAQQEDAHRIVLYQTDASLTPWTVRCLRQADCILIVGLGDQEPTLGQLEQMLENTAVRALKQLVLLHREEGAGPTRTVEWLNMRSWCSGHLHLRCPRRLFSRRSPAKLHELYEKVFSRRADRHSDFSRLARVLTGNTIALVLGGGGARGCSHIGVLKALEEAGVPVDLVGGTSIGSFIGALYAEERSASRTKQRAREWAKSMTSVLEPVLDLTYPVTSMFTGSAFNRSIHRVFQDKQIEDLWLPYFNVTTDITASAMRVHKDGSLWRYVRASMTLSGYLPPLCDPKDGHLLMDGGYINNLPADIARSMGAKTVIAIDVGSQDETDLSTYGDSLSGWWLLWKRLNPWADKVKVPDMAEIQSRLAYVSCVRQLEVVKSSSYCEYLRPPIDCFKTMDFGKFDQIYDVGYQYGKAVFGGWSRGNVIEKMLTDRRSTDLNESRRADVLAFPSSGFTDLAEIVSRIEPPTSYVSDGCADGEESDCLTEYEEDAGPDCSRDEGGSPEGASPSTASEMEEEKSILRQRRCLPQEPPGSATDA
As to the kind of experiment: hPNPLA6 off-target inhibition. It is filed as biochemical. As to conditions: read-out: hPNPLA6 off-target inhibition [% inhibition at 100 μM]. The procedure:
Expi lysates expressing hPNPLA6 were treated with 100 μM Inhibitors and incubated with 1 mM C8 monoacylglycerol substrate (containing 5 mM CHAPS, 50 mM NaPh buffer ph7.4, 0.15 M NaCl) for 40 min, Glycerol release was determined via Free glycerol reagent (Sigma Aldrich). Samples measured in triplicates.

Where [1] appears, read: Example 237, read-out: Inhibition of human ATGL − IC50.
Where [2] appears, read: Example 238, read-out: Inhibition of human ATGL IC50.

For orientation: IC50 means the concentration that inhibits the measured activity by half. On to `CCOc1ccc(-c2cc(OC)cc(C(=O)OC(C)C)n2)cc1` [Example 35], for which the IC50 on human ATGL (setting [1]) was 1 µM.
What is called inhibition is the percentage by which the read-out fell short of the control. In the case of `CCOc1ccc(-c2nc(C(=O)OCc3cccs3)cs2)cc1` [Example 152, Thiophen-2-ylmethyl 2-(4-ethoxyphenyl)thiazole-4-carboxylate], the inhibition at 100 µM on hPNPLA6 was found to be 0%. Besides, the IC50 on human ATGL (setting [1]) was found to be 10 µM.
As to `CCOc1ccc(-c2cccc(C(=O)OCc3cccs3)n2)cc1` [Example 189, Thiophen-2-ylmethyl 6-(4-ethoxyphenyl)picolinate], the inhibition at 100 µM at hPNPLA6 stood at 0%. The 50% inhibitory concentration (IC50) at human ATGL (setting [2]) worked out at 25 µM.
Take `CCOc1ccc(-c2cccc(C(=O)OCc3ccco3)n2)cc1` [Example 190, Furan-2-ylmethyl 6-(4-ethoxyphenyl)picolinate]: the inhibition at 100 µM at hPNPLA6 was determined as 0%. The IC50 on human ATGL (setting [2]) is 15 µM.
Taken in the same sequence, the figures for `COc1cc(C(=O)OC(C)C)nc(-c2ccc(OC(C)C)cc2)c1` [Example 201, Isopropyl 6-(4-isopropoxyphenyl)-4-methoxypicolinate] were 0% and below 3 µM.
`CC#CCOC(=O)c1csc(-c2ccc(OCC)cc2)n1` [Example 209, But-2-yn-1-yl 2-(4-ethoxyphenyl)thiazole-4-carboxylate]: on hPNPLA6, the inhibition at 100 µM was 0%. Further, the concentration for half-maximal inhibition (IC50) at human ATGL (setting [2]) worked out at 10 µM.
Consider `C#C[C@H](C)OC(=O)c1csc(-c2ccc(OCC)cc2)n1` [Example 210, (S)-But-3-yn-2-yl 2-(4-ethoxyphenyl)thiazole-4-carboxylate], for which the inhibition at 100 µM at hPNPLA6 worked out at 0%. At human ATGL (setting [2]), the IC50 was below 3 µM.
As for `C#C[C@@H](C)OC(=O)c1csc(-c2ccc(OCC)cc2)n1` [Example 211, (R)-But-3-yn-2-yl 2-(4-ethoxyphenyl)thiazole-4-carboxylate], the inhibition at 100 µM at hPNPLA6 was 0%. Further, on human ATGL (setting [2]), the IC50 is below 3 µM.
Take `CCCCOC(=O)c1csc(-c2ccc(OCC)cc2)n1` [Example 212, Butyl 2-(4-ethoxyphenyl)thiazole-4-carboxylate]: the inhibition at 100 µM at hPNPLA6 was found to be 0%. For the same molecule, on human ATGL (setting [2]), the IC50 was 7 µM.
In the case of `CCOc1ccc(-c2nc(C(=O)OCc3ccsc3)cs2)cc1` [Example 215, Thiophen-3-ylmethyl 2-(4-ethoxyphenyl)thiazole-4-carboxylate], the inhibition at 100 µM on hPNPLA6 was found to be 0%. The IC50 at human ATGL (setting [2]) is below 3 µM.
Consider `CCOc1ccc(-c2nc(C(=O)OCc3ccoc3)cs2)cc1` [Example 216, Furan-3-ylmethyl 2-(4-ethoxyphenyl)thiazole-4-carboxylate], for which, at hPNPLA6, the inhibition at 100 µM is 0%. Moreover, the half-inhibitory concentration (IC50) at human ATGL (setting [2]) is below 3 µM.
The like results for `CCOc1ccc(-c2nc(C(=O)OCc3ccc(Cl)s3)cs2)cc1` [Example 223, (5-Chlorothiophen-2-yl)methyl 2-(4-ethoxyphenyl)thiazole-4-carboxylate] were, in that order, 0% and 12 µM.
With `CCOc1ccc(-c2nc(C(=O)OCc3ccc(Br)s3)cs2)cc1` [Example 224, (5-Bromothiophen-2-yl)methyl 2-(4-ethoxyphenyl)thiazole-4-carboxylate], the inhibition at 100 µM on hPNPLA6 turned out to be 0%. The IC50 on human ATGL (setting [2]) is 12 µM.
